Measured values as given in PMC9481151, “Discovery of new symmetrical and asymmetrical nitrile-containing 1,4-dihydropyridine derivatives as dual kinases and P-glycoprotein inhibitors: synthesis, in vitro assays, and in silico studies” (Journal of Enzyme Inhibition and Medicinal Chemistry, 2022).

Key:
ACHN = experiment: NCI single dose (10 µM) SRB screen; format: cell-based, human; conditions: renal cancer, 48 h
SK-MEL-5 = experiment: NCI single dose (10 µM) SRB screen; format: cell-based, human; conditions: melanoma, 48 h
SK-MEL-2 = experiment: NCI single dose (10 µM) SRB screen; format: cell-based, human; conditions: melanoma, 48 h
SK-OV-3 = experiment: NCI single dose (10 µM) SRB screen; format: cell-based, human; conditions: ovarian cancer, 48 h
A498 = experiment: NCI single dose (10 µM) SRB screen; format: cell-based, human; conditions: renal cancer, 48 h
NCI-H460 = experiment: NCI single dose (10 µM) SRB screen; format: cell-based, human; conditions: non-small cell lung cancer, 48 h
EKVX = experiment: NCI single dose (10 µM) SRB screen; format: cell-based, human; conditions: non-small cell lung cancer, 48 h
Pseudomonas aeruginosa = experiment: Agar well diffusion method; conditions: for zone of inhibition at 1000 µg/mL: Pseudomonas aeruginosa, 24 h, read-out: Diameter of inhibition zone, P. aeruginosa; for % activity index, P. aeruginosa: relative to ciprofloxacin
MCF7 = experiment: NCI single dose (10 µM) SRB screen; format: cell-based, human; conditions: breast cancer, 48 h
K-562 = experiment: NCI single dose (10 µM) SRB screen; format: cell-based, human; conditions: leukaemia, 48 h
CCRF-CEM = experiment: NCI single dose (10 µM) SRB screen; format: cell-based, human; conditions: leukaemia, 48 h
HL-60(TB) = experiment: NCI single dose (10 µM) SRB screen; format: cell-based, human; conditions: leukaemia, 48 h
KM12 = experiment: NCI single dose (10 µM) SRB screen; format: cell-based, human; conditions: colon cancer, 48 h
OVCAR-5 = experiment: NCI single dose (10 µM) SRB screen; format: cell-based, human; conditions: ovarian cancer, 48 h
HT29 = experiment: NCI single dose (10 µM) SRB screen; format: cell-based, human; conditions: colon cancer, 48 h
HCT-116 = experiment: NCI single dose (10 µM) SRB screen; format: cell-based, human; conditions: colon cancer, 48 h

Row | Structure (SMILES) | melting point [°C] | GI% ACHN (ACHN) | GI% SK-MEL-5 (SK-MEL-5) | GI% SK-MEL-2 (SK-MEL-2) | GI% SK-OV-3 (SK-OV-3) | GI% A498 (A498) | GI% NCI-H460 (NCI-H460) | GI% EKVX (EKVX) | zone of inhibition at 1000 µg/mL (Pseudomonas aeruginosa) [mm] | % activity index, P. aeruginosa (Pseudomonas aeruginosa) [%] | GI% MCF7 (MCF7) | GI% K-562 (K-562) | GI% CCRF-CEM (CCRF-CEM) | GI% HL-60(TB) (HL-60(TB)) | GI% KM12 (KM12) | GI% OVCAR-5 (OVCAR-5) | GI% HT29 (HT29) | GI% HCT-116 (HCT-116)
1 | COCCOC(=O)C1=C(C)NC(C)=C(C(=O)OC)C1c1cccc(C#N)c1 (racemic) [Compound 2d, (±)-3-(2-Methoxyethyl) 5-methyl 4-(3-cyanophenyl)-2,6-dimethyl-1,4-dihydropyridine-3,5-dicarboxylate] | 127 to 128 | – (Only GI% ≥ 10 are shown) | – (Only GI% ≥ 10 are shown) | – (Only GI% ≥ 10 are shown) | – (Only GI% ≥ 10 are shown) | 12% | – (Only GI% ≥ 10 are shown) | – (Only GI% ≥ 10 are shown) | 14 | 60.9 | – (Only GI% ≥ 10 are shown) | – (Only GI% ≥ 10 are shown) | – (Only GI% ≥ 10 are shown) | – (Only GI% ≥ 10 are shown) | – (Only GI% ≥ 10 are shown) | – (Only GI% ≥ 10 are shown) | – (Only GI% ≥ 10 are shown) | – (Only GI% ≥ 10 are shown)
2 | CC1=C(C(=O)OC(C)C)C(c2cccc(C#N)c2)C(C(=O)OC(C)C)=C(C)N1 [Compound 1c, Diisopropyl 4-(3-cyanophenyl)-2,6-dimethyl-1,4-dihydropyridine-3,5-dicarboxylate] | 124 to 125 | – (Only GI% ≥ 10 are shown) | – (Only GI% ≥ 10 are shown) | – (Only GI% ≥ 10 are shown) | – (Only GI% ≥ 10 are shown) | – (Only GI% ≥ 10 are shown) | – (Only GI% ≥ 10 are shown) | – (Only GI% ≥ 10 are shown) | 8 | 34.8 | 11% | 25% | – (Only GI% ≥ 10 are shown) | 29% | – (Only GI% ≥ 10 are shown) | – (Only GI% ≥ 10 are shown) | – (Only GI% ≥ 10 are shown) | 13%
3 | CCOC(=O)C1=C(C)NC(C)=C(C(=O)OC(C)C)C1c1cccc(C#N)c1 (racemic) [Compound 2h, (±)-3-Ethyl 5-isopropyl 4-(3-cyanophenyl)-2,6-dimethyl-1,4-dihydropyridine-3,5-dicarboxylate] | 136 to 138 | – (Only GI% ≥ 10 are shown) | – (Only GI% ≥ 10 are shown) | – (Only GI% ≥ 10 are shown) | – (Only GI% ≥ 10 are shown) | 16% | – (Only GI% ≥ 10 are shown) | – (Only GI% ≥ 10 are shown) | 10 | 43.5 | – (Only GI% ≥ 10 are shown) | – (Only GI% ≥ 10 are shown) | – (Only GI% ≥ 10 are shown) | – (Only GI% ≥ 10 are shown) | – (Only GI% ≥ 10 are shown) | – (Only GI% ≥ 10 are shown) | – (Only GI% ≥ 10 are shown) | – (Only GI% ≥ 10 are shown)
